Data on two compounds can be found in ChEMBL document CHEMBL4819124, “Folate-targeted verrucarin A reduces the number of activated macrophages in a mouse model of acute peritonitis” (Bioorg Med Chem Lett, 2021).

Active and inactive are the calls of the source. No cut-off for these calls is given here. *1 amine or outer side, *2 acyl side, *3 side chain or, on linkers, in order; H or OH if unused. Where a SMILES comes first, the peptide text is derived from it. The star is where a group is joined. Pteroyl = Nc1nc2ncc(CNc3ccc(C(=O)*)cc3)nc2c(=O)[nH]1; γGlu = O=C(O)[C@H](CCC(=O)[*:2])N[*:1]

For one assay, the target named is Folate receptor beta (Homo sapiens, UniProt P14207). The assay is described as follows: Displacement of [3H]-folic acid from FRbeta (unknown origin) expressed in mouse RAW264.7 cells after 1 hr. Type of assay: cell-based.
A further assay addresses Folate receptor alpha (Homo sapiens, UniProt P15328). The assay is described as follows: Displacement of [3H]-folic acid from FRalpha (unknown origin) expressed in human KB cells after 1 hr. Type of assay: cell-based. A general note: Displacement assays read how much labelled ligand stays bound in the presence of the test substance.
For assay [1], the system named is Mus musculus. Nature of the assay: Antiinflammatory activity against mouse model of thioglycolate induced peritonitis assessed as decrease in total macrophage population in peritoneal fluid at 1000 nmol/kg, ip dosed twice everyday measured after 3 days by staining based flow cytometric analysis relative to control. Type of assay: functional, organism-based. Particulars: time 3.0 day. On the technique in general: In flow cytometry, cells or beads pass a laser one at a time.

Assay [2] has as its system Mus musculus. Nature of the assay: Antiinflammatory activity against mouse model of thioglycolate induced peritonitis assessed as decrease in FR+ macrophages in peritoneal fluid at 1000 nmol/kg, ip dosed twice everyday measured after 3 days by Alexafluor-488 goat anti-rabbitIgG staining based flow cytometric analysis relative to control. Particulars: time 3.0 day. It is filed as functional, organism-based.

Assay [3] relates to Mus musculus. The assay is described as follows: Antiinflammatory activity against mouse model of thioglycolate induced peritonitis assessed as effect on lymphocytes in peritoneal fluid at 1000 nmol/kg, ip dosed twice everyday measured after 3 days by staining based flow cytometric analysis relative to control. Type of assay: functional, organism-based. The note with it: time 3.0 day.

Assay [4] concerns Mus musculus. Nature of the assay: Antiinflammatory activity against mouse model of thioglycolate induced peritonitis assessed as effect on granulocytes in peritoneal fluid at 1000 nmol/kg, ip dosed twice everyday measured after 3 days by staining based flow cytometric analysis relative to control. Type of assay: functional, organism-based. The note with it: time 3.0 day.
The next assay relates to RAW264.7. The assay is described as follows: Cytotoxicity against mouse RAW264.7 cells assessed as reduction in cell viability treated for 1 hr followed by 72 hrs incubation in drug free media by [3H]-thymidine incorporation assay. Type of assay: functional, cell-based.
A further assay concerns KB. The assay is described as follows: Cytotoxicity against human KB cells assessed as reduction in cell viability treated for 1 hr followed by 72 hrs incubation in drug free media by [3H]-thymidine incorporation assay. It is filed as cell-based.

Sequence of Folate receptor alpha (P15328 whole entry): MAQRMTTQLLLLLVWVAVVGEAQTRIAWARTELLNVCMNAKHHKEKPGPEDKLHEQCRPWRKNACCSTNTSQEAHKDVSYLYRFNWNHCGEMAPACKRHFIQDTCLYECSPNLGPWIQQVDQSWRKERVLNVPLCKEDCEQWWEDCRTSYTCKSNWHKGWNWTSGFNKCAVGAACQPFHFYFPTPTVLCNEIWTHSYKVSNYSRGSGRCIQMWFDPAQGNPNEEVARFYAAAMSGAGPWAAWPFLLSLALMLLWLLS
Sequence of Folate receptor beta (P14207 whole entry): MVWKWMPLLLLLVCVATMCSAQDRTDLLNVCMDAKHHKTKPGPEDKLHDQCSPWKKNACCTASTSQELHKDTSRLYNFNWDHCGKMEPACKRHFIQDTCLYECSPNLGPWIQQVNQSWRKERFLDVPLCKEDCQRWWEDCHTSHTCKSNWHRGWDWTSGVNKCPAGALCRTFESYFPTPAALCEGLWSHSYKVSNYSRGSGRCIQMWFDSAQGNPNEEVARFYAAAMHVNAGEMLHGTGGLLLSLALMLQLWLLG

Regarding `N=C(N)NCCC[C@H](NC(=O)[C@H](CC(=O)O)NC(=O)CC[C@H](NC(=O)c1ccc(NCc2cnc3nc(N)[nH]c(=O)c3n2)cc1)C(=O)O)C(=O)N[C@@H](CC(=O)O)C(=O)N[C@@H](CC(=O)O)C(=O)N[C@@H](CS)C(=O)O` ({Pteroyl-γGlu}-DRDDC-OH), the IC50 – broadly, the concentration needed to halve the response being measured – at Folate receptor beta was 0.56 nM; at Folate receptor alpha it was 1.4 nM.

Take `CC1=C[C@H]2O[C@@H]3C[C@H]4OC(=O)/C=C\C=C\C(=O)OCC[C@@H](C)[C@H](OC(=O)OCCSSC[C@H](NC(=O)[C@H](CC(=O)O)NC(=O)[C@H](CC(=O)O)NC(=O)[C@H](CCCNC(=N)N)NC(=O)[C@H](CC(=O)O)NC(=O)CC[C@H](NC(=O)c5ccc(NCc6cnc7nc(N)[nH]c(=O)c7n6)cc5)C(=O)O)C(=O)O)C(=O)OC[C@@]2(CC1)[C@]4(C)[C@]31CO1`: the result in the assay on Mus musculus [1] and with Mus musculus [2] was Active. The outcome in the assay with Mus musculus [3] and in the assay with Mus musculus [4] was inactive. Also, the IC50 turned out to be 8.5 nM in the assay on RAW264.7 and 525 nM in the assay with KB.
